In ChEMBL document CHEMBL5046315, “CRCM5484: A BET-BDII Selective Compound with Differential Anti-leukemic Drug Modulation” (J Med Chem, 2022):
Active and inactive are the calls of the source. The rule behind the calls is not given here.

Assays:
[1] = molecular target: Bromodomain-containing protein 2 (Homo sapiens, UniProt P25440); assay: Inhibition of BRD2-BD1 (unknown origin) incubated for 6 hrs by HTRF method
[2] = molecular target: Chromatin remodeling regulator CECR2 (Homo sapiens) (UniProt Q9BXF3); assay: Binding affinity to partial length human CECR2 (P423 to D543 residues) expressed in bacterial system at 1 uM by BROMOscan method relative to control
MOLM-14 [3] = assay: Downregulation of Myc expression in human MOLM-14 cells incubated for 2 hrs by RT-PCR analysis; format: functional, cell-based; details: dose 5.0 µM
K562 = assay: Inhibition of IFNgamma induced MHC-1 expression in human K562 cells treated for 48 hrs by flow cytometric analysis; format: functional, cell-based; details: dose 0.2-20 µM
[4] = tested on: Acute myeloid leukemic cell; assay: Potentiation of vorinostat-induced antileukemic activity against patient derived mouse xenografted acute myeloid leukemic cells assessed as cell viability at 0.16 to 10 uM in absence of bone-marrow derived stromal cell-conditioned medium measured after 72 to 144 hrs by cell-titre glo luminescent assay; format: functional, cell-based; details: Homo sapiens, dose 0.16-10 µM, time lower […], time upper 144.0 hrs
CCRF-CEM [5] = assay: Potentiation of birinapant-induced antileukemic activity against human CCRF-CEM cells at 4.3 uM in presence of bone-marrow derived stromal cell-conditioned medium; format: functional, cell-based
CCRF-CEM [6] = assay: Potentiation of BKM120-induced antileukemic activity against human CCRF-CEM cells at 4.3 uM in presence of bone-marrow derived stromal cell-conditioned medium; format: functional, cell-based
CCRF-CEM [7] = assay: Potentiation of decitabine-induced antileukemic activity against human CCRF-CEM cells at 4.3 uM in presence of bone-marrow derived stromal cell-conditioned medium; format: functional, cell-based
CCRF-CEM [8] = assay: Potentiation of idarubicin-induced antileukemic activity against human CCRF-CEM cells at 4.3 uM in presence of bone-marrow derived stromal cell-conditioned medium; format: functional, cell-based
CCRF-CEM [9] = assay: Potentiation of luminespid-induced antileukemic activity against human CCRF-CEM cells at 4.3 uM in presence of bone-marrow derived stromal cell-conditioned medium; format: functional, cell-based
CCRF-CEM [10] = assay: Potentiation of midostaurin-induced antileukemic activity against human CCRF-CEM cells at 4.3 uM in presence of bone-marrow derived stromal cell-conditioned medium; format: functional, cell-based
CCRF-CEM [11] = assay: Potentiation of quizartinib-induced antileukemic activity against human CCRF-CEM cells at 4.3 uM in presence of bone-marrow derived stromal cell-conditioned medium; format: functional, cell-based
CCRF-CEM [12] = assay: Potentiation of SGI-110-induced antileukemic activity against human CCRF-CEM cells at 4.3 uM in presence of bone-marrow derived stromal cell-conditioned medium; format: functional, cell-based
CCRF-CEM [13] = assay: Potentiation of SGI-1776-induced antileukemic activity against human CCRF-CEM cells at 4.3 uM in presence of bone-marrow derived stromal cell-conditioned medium; format: functional, cell-based
CCRF-CEM [14] = assay: Potentiation of trametinib-induced antileukemic activity against human CCRF-CEM cells at 4.3 uM in presence of bone-marrow derived stromal cell-conditioned medium; format: functional, cell-based
U-937 [15] = assay: Potentiation of asparaginase-induced antileukemic activity against human U-937 cells at 4.3 uM in presence of bone-marrow derived stromal cell-conditioned medium; format: functional, cell-based
U-937 [16] = assay: Potentiation of birinapant-induced antileukemic activity against human U-937 cells at 4.3 uM in presence of bone-marrow derived stromal cell-conditioned medium; format: functional, cell-based
U-937 [17] = assay: Potentiation of bortezomib-induced antileukemic activity against human U-937 cells at 4.3 uM in presence of bone-marrow derived stromal cell-conditioned medium; format: functional, cell-based
U-937 [18] = assay: Potentiation of crenolatinib-induced antileukemic activity against human U-937 cells at 4.3 uM in presence of bone-marrow derived stromal cell-conditioned medium; format: functional, cell-based
U-937 [19] = assay: Potentiation of erlotinib-induced antileukemic activity against human U-937 cells at 4.3 uM in presence of bone-marrow derived stromal cell-conditioned medium; format: functional, cell-based
U-937 [20] = assay: Potentiation of etoposide-induced antileukemic activity against human U-937 cells at 4.3 uM in presence of bone-marrow derived stromal cell-conditioned medium; format: functional, cell-based
U-937 [21] = assay: Potentiation of everolimus-induced antileukemic activity against human U-937 cells at 4.3 uM in presence of bone-marrow derived stromal cell-conditioned medium; format: functional, cell-based
U-937 [22] = assay: Potentiation of hydroxychloroquine-induced antileukemic activity against human U-937 cells at 4.3 uM in presence of bone-marrow derived stromal cell-conditioned medium; format: functional, cell-based
U-937 [23] = assay: Potentiation of navitoclax-induced antileukemic activity against human U-937 cells at 4.3 uM in presence of bone-marrow derived stromal cell-conditioned medium; format: functional, cell-based
U-937 [24] = assay: Potentiation of -nutlin 3-induced antileukemic activity against human U-937 cells at 4.3 uM in presence of bone-marrow derived stromal cell-conditioned medium; format: functional, cell-based
U-937 [25] = assay: Potentiation of OTX015-induced antileukemic activity against human U-937 cells at 4.3 uM in presence of bone-marrow derived stromal cell-conditioned medium; format: functional, cell-based
U-937 [26] = assay: Potentiation of topotecan-induced antileukemic activity against human U-937 cells at 4.3 uM in presence of bone-marrow derived stromal cell-conditioned medium; format: functional, cell-based
MOLM-14 [27] = assay: Potentiation of AG-221-induced antileukemic activity against human MOLM-14 cells at 4.3 uM in presence of bone-marrow derived stromal cell-conditioned medium; format: functional, cell-based
MOLM-14 [28] = assay: Potentiation of alisertib-induced antileukemic activity against human MOLM-14 cells at 4.3 uM in presence of bone-marrow derived stromal cell-conditioned medium; format: functional, cell-based
MOLM-14 [29] = assay: Potentiation of azacitidine-induced antileukemic activity against human MOLM-14 cells at 4.3 uM in presence of bone-marrow derived stromal cell-conditioned medium; format: functional, cell-based
MOLM-14 [30] = assay: Potentiation of carfilzomib-induced antileukemic activity against human MOLM-14 cells at 4.3 uM in presence of bone-marrow derived stromal cell-conditioned medium; format: functional, cell-based
MOLM-14 [31] = assay: Potentiation of crenolatinib-induced antileukemic activity against human MOLM-14 cells at 4.3 uM in presence of bone-marrow derived stromal cell-conditioned medium; format: functional, cell-based
MOLM-14 [32] = assay: Potentiation of daunorubicine-induced antileukemic activity against human MOLM-14 cells at 4.3 uM in presence of bone-marrow derived stromal cell-conditioned medium; format: functional, cell-based
MOLM-14 [33] = assay: Potentiation of docetaxel-induced antileukemic activity against human MOLM-14 cells at 4.3 uM in presence of bone-marrow derived stromal cell-conditioned medium; format: functional, cell-based
MOLM-14 [34] = assay: Potentiation of -mastinib -induced antileukemic activity against human MOLM-14 cells at 4.3 uM in presence of bone-marrow derived stromal cell-conditioned medium; format: functional, cell-based
MOLM-14 [35] = assay: Potentiation of navitoclax-induced antileukemic activity against human MOLM-14 cells at 4.3 uM in presence of bone-marrow derived stromal cell-conditioned medium; format: functional, cell-based
MOLM-14 [36] = assay: Potentiation of prima1-induced antileukemic activity against human MOLM-14 cells at 4.3 uM in presence of bone-marrow derived stromal cell-conditioned medium; format: functional, cell-based
MOLM-14 [37] = assay: Potentiation of tretinoin-induced antileukemic activity against human MOLM-14 cells at 4.3 uM in presence of bone-marrow derived stromal cell-conditioned medium; format: functional, cell-based
MOLM-14 [38] = assay: Potentiation of vermurafenib-induced antileukemic activity against human MOLM-14 cells at 4.3 uM in presence of bone-marrow derived stromal cell-conditioned medium; format: functional, cell-based
MOLM-14 [39] = assay: Potentiation of VX680-induced antileukemic activity against human MOLM-14 cells at 4.3 uM in presence of bone-marrow derived stromal cell-conditioned medium; format: functional, cell-based

Chain of Chromatin remodeling regulator CECR2 (Homo sapiens) (Q9BXF3 whole entry, looked up, the tested form may be a part): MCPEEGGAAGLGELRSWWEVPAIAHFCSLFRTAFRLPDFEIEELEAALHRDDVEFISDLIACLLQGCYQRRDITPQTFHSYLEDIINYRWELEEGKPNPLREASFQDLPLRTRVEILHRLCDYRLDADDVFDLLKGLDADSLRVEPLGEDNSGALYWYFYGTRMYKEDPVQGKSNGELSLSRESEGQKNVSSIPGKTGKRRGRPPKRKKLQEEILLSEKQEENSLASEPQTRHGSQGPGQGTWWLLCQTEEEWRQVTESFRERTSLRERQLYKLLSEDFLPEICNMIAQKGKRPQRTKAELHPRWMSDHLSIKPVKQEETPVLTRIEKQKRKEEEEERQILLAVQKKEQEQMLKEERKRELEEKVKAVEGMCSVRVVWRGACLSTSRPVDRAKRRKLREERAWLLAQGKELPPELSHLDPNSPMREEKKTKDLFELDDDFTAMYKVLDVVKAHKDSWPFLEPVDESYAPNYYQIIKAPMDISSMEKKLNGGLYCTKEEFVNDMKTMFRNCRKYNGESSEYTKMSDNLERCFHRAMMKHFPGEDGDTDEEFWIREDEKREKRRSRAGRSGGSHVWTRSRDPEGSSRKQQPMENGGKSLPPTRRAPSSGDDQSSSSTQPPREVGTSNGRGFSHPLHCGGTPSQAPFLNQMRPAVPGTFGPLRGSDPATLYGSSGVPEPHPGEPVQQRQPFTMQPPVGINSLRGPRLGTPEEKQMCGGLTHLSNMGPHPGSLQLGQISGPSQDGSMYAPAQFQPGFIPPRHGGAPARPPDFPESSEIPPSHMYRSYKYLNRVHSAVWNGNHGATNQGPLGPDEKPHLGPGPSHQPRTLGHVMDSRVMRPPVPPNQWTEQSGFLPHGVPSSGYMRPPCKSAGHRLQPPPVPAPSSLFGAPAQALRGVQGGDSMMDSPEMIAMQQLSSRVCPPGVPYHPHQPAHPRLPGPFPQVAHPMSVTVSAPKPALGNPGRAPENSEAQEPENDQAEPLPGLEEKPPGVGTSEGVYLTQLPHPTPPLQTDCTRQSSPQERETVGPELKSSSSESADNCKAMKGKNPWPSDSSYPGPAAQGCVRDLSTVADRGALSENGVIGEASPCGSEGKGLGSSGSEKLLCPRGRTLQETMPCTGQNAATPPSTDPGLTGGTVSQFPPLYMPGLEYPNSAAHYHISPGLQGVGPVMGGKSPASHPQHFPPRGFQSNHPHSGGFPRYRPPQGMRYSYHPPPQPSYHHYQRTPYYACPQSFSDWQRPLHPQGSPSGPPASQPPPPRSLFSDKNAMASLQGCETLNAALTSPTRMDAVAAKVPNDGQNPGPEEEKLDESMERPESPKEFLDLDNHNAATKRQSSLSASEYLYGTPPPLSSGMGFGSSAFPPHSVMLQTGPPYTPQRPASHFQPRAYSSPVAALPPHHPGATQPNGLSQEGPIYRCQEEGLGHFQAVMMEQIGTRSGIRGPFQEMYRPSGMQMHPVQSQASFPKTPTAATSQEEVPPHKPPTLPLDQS
Chain of Bromodomain-containing protein 2 (P25440 whole entry, the tested form may be a part): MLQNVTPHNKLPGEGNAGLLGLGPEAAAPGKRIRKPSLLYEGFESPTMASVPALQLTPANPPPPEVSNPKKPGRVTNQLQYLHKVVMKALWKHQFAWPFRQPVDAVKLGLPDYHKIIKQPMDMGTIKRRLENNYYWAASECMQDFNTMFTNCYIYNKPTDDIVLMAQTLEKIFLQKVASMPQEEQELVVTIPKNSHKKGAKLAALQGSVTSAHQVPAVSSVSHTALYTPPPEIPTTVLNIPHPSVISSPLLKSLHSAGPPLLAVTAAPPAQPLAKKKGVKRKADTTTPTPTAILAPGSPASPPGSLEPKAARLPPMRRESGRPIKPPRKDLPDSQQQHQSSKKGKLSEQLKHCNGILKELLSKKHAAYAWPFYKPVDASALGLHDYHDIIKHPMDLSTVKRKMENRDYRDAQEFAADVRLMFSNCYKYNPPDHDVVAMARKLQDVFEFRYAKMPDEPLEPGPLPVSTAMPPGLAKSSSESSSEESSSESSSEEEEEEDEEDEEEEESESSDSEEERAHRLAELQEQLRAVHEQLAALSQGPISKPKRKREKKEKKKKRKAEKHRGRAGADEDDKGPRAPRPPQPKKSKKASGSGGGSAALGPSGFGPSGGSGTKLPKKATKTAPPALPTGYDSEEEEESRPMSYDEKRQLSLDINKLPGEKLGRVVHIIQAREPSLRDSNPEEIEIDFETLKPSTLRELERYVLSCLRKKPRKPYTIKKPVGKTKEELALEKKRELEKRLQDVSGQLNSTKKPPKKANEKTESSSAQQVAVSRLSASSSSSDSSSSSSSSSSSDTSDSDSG

With CC(=O)N1CCc2c(sc3nc(SCC(=O)Nc4cccnc4C)n(Cc4ccco4)c(=O)c23)C1 the IC50 [1] was 4.7 µM, the Activity [2] was 54% and the Activity (MOLM-14 [3]) was “Dose-Dependent Effect”. For the same compound, the Activity (K562) was “Dose-Dependent Effect”, the Activity [4] was “inactive” and the Activity (CCRF-CEM [5]) was “inactive”. For the same compound, the Activity (CCRF-CEM [6]) was “inactive”, the Activity (CCRF-CEM [7]) was “inactive” and the Activity (CCRF-CEM [8]) was “inactive”. For the same compound, the Activity (CCRF-CEM [9]) was “inactive”, the Activity (CCRF-CEM [10]) was “inactive” and the Activity (CCRF-CEM [11]) was “inactive”. The Activity (CCRF-CEM [12]) was “inactive”, the Activity (CCRF-CEM [13]) was “inactive” and the Activity (CCRF-CEM [14]) was “inactive”. The Activity (U-937 [15]) was “inactive”, the Activity (U-937 [16]) was “inactive” and the Activity (U-937 [17]) was “inactive”. For the same compound, the Activity (U-937 [18]) was “inactive”, the Activity (U-937 [19]) was “inactive” and the Activity (U-937 [20]) was “inactive”. For the same compound, the Activity (U-937 [21]) was “inactive”, the Activity (U-937 [22]) was “inactive” and the Activity (U-937 [23]) was “inactive”. For the same compound, the Activity (U-937 [24]) was “inactive”, the Activity (U-937 [25]) was “inactive” and the Activity (U-937 [26]) was “inactive”. For the same compound, the Activity (MOLM-14 [27]) was “inactive”, the Activity (MOLM-14 [28]) was “inactive” and the Activity (MOLM-14 [29]) was “inactive”. For the same compound, the Activity (MOLM-14 [30]) was “inactive”, the Activity (MOLM-14 [31]) was “inactive” and the Activity (MOLM-14 [32]) was “inactive”. The Activity (MOLM-14 [33]) was “inactive”, the Activity (MOLM-14 [34]) was “inactive” and the Activity (MOLM-14 [35]) was “inactive”. For the same compound, the Activity (MOLM-14 [36]) was “inactive”, the Activity (MOLM-14 [37]) was “inactive” and the Activity (MOLM-14 [38]) was “inactive”. For the same compound, the Activity (MOLM-14 [39]) was “inactive”.
